Test system: moderate-to-severe chronic spontaneous urticaria (CSU)
Experiment: Phase 2 CSU study: itch severity score over 7 days (ISS7)
Type: in vivo, human
Conditions: for Change from Baseline in ISS7 at Week 12, LS Mean / Change from Baseline in ISS7 at Week 12, LS Mean Diff vs. placebo / Change from Baseline in ISS7 at Week 12, Mean: Omalizumab-naïve population; for ISS7 change from baseline at Week 12, LS Mean / ISS7 change from baseline at Week 12, LS Mean Diff vs. placebo: ANCOVA
Excerpt: The study comprises a 12 week, randomized, double-blind, placebo-controlled, multi-center, dose-ranging efficacy and safety phase, followed by a 40 week open label extension (OLE) phase (see FIG. 1). The study consists of three phases and an optional OLE phase. […] Clinically, CSU is characterized by the spontaneous and recurrent appearance of pruritic hives. The proposed primary endpoints were the UAS7 at Week 12 in EU and EU reference countries and the ISS7 in the US. Regardless of where a participant was from, all assessments were the same. The UAS7 score is a composite score containing both the HSS7 and the ISS7. This allowed a global assessment of the two key components of urticaria: hives and itch. […] The UAS is a validated PRO measure. […] The daily UAS scores range from 0 to 6 point/day. […] Patients were to complete the UAS using the e-diary. […] The following secondary endpoints were to be analyzed using the same approach as for the primary endpoint: • Change from baseline in UAS7 at Week 4 • Change from baseline in UAS7 at Week 12 (for US and US reference countries) • Change from baseline in ISS7 at Week 12 (except US and US reference countries) • Change from baseline in HSS7 at Week 12

[1] = 400 mg QPM, Duration of disease (years) <2
[2] = 400 mg QPM, Duration of disease (years) >10
[3] = 400 mg QPM, Ethnicity Non-Hispanic
[4] = 400 mg QPM, History of angioedema No
[5] = 400 mg QPM, History of angioedema Yes
[6] = 400 mg QPM, Race All the Others
[7] = 400 mg QPM, Region Eastern Europe
[8] = 400 mg QPM, Region Latin America
[9] = 400 mg QPM, Region Western Countries
[10] = 400 mg QPM, omalizumab-naïve population
[11] = 400 mg QPM, omalizumab-naïve population with outlier removed
[12] = 400 mg TID, Age group (years) <44 (Median)
[13] = 400 mg TID, Age group (years) <65
[14] = 400 mg TID, Age group (years) ≥44 (Median)
[15] = 400 mg TID, Baseline BHRA BHRA+
[16] = 400 mg TID, Baseline BHRA BHRA−
[17] = 400 mg TID, Baseline Eosinophils (10^9/L) <0.150
[18] = 400 mg TID, Baseline Eosinophils (10^9/L) <0.165 (Median)
[19] = 400 mg TID, Baseline Eosinophils (10^9/L) <0.3
[20] = 400 mg TID, Baseline Eosinophils (10^9/L) ≥0.150
[21] = 400 mg TID, Baseline Eosinophils (10^9/L) ≥0.165 (Median)
[22] = 400 mg TID, Baseline Eosinophils (10^9/L) ≥0.3
[23] = 400 mg TID, Baseline H1-antihistamines dose 1-fold
[24] = 400 mg TID, Baseline H1-antihistamines dose 2 to 4-fold standard dose

With `CC(C)(C=C(C#N)C(=O)N1CCC[C@@H](n2nc(-c3ccc(Oc4ccccc4)cc3F)c3c(N)ncnc32)C1)N1CCN(C2COC2)CC1` [rilzabrutinib, (R)-2-[3-[4-amino-3-(2-fluoro-4-phenoxy-phenyl)pyrazolo[3,4-d]pyrimidin-1-yl]piperidine-1-carbonyl]-4-methyl-4-[4-(oxetan-3-yl)piperazin-1-yl]pent-2-enenitrile] the “Change from Baseline in ISS7 at Week 12, LS Mean” value [1] was −4.83, the “Change from Baseline in ISS7 at Week 12, LS Mean Diff vs. placebo” value [1] was −1.18 and the “Change from Baseline in ISS7 at Week 12, Mean” value [1] was −5.46. The “Change from Baseline in ISS7 at Week 12, LS Mean” value [2] was −0.20, the “Change from Baseline in ISS7 at Week 12, LS Mean Diff vs. placebo” value [2] was 3.49 and the “Change from Baseline in ISS7 at Week 12, Mean” value [2] was −3.29. For the same compound, the “Change from Baseline in ISS7 at Week 12, LS Mean” value (400 mg QPM, Ethnicity Hispanic) was −4.19, the “Change from Baseline in ISS7 at Week 12, LS Mean Diff vs. placebo” value (400 mg QPM, Ethnicity Hispanic) was 2.82 and the “Change from Baseline in ISS7 at Week 12, Mean” value (400 mg QPM, Ethnicity Hispanic) was −5.04. For the same compound, the “Change from Baseline in ISS7 at Week 12, LS Mean” value [3] was −5.29, the “Change from Baseline in ISS7 at Week 12, LS Mean Diff vs. placebo” value [3] was −0.82 and the “Change from Baseline in ISS7 at Week 12, Mean” value [3] was −6.12. The “Change from Baseline in ISS7 at Week 12, Mean” value (400 mg QPM, Gender Female) was −5.86, the “Change from Baseline in ISS7 at Week 12, Mean” value (400 mg QPM, Gender Male) was −5.20 and the “Change from Baseline in ISS7 at Week 12, LS Mean” value [4] was −4.56. For the same compound, the “Change from Baseline in ISS7 at Week 12, LS Mean Diff vs. placebo” value [4] was 0.78, the “Change from Baseline in ISS7 at Week 12, Mean” value [4] was −5.32 and the “Change from Baseline in ISS7 at Week 12, LS Mean” value [5] was −5.00. The “Change from Baseline in ISS7 at Week 12, LS Mean Diff vs. placebo” value [5] was 0.25, the “Change from Baseline in ISS7 at Week 12, Mean” value [5] was −6.31 and the “ISS7 at Week 12, Mean” value (400 mg QPM, ITT population) was 11.37. The “ISS7 at Week 12, Median” value (400 mg QPM, ITT population) was 11.20, the “ISS7 change from baseline at Week 12, Mean” value (400 mg QPM, ITT population) was −5.95 and the “ISS7 change from baseline at Week 12, Median” value (“ISS7 change … Median” for short) (400 mg QPM, ITT population) was −5.67. For the same compound, the “ISS7 change from baseline at Week 12, LS Mean” value (400 mg QPM, ITT population) was −5.46 points, the “ISS7 change from baseline at Week 12, LS Mean Diff vs. placebo” value (“ISS7 change … LS Mean Diff vs. placebo” for short) (400 mg QPM, ITT population) was 0.85 and the “Change from Baseline in ISS7 at Week 12, LS Mean” value [6] was −4.94. For the same compound, the “Change from Baseline in ISS7 at Week 12, LS Mean Diff vs. placebo” value [6] was −1.48, the “Change from Baseline in ISS7 at Week 12, Mean” value [6] was −5.66 and the “Change from Baseline in ISS7 at Week 12, LS Mean” value (400 mg QPM, Race White) was −4.41. The “Change from Baseline in ISS7 at Week 12, LS Mean Diff vs. placebo” value (400 mg QPM, Race White) was 1.60, the “Change from Baseline in ISS7 at Week 12, Mean” value (400 mg QPM, Race White) was −5.70 and the “Change from Baseline in ISS7 at Week 12, LS Mean” value (400 mg QPM, Region Asia) was −5.17. For the same compound, the “Change from Baseline in ISS7 at Week 12, LS Mean Diff vs. placebo” value (400 mg QPM, Region Asia) was −1.72, the “Change from Baseline in ISS7 at Week 12, Mean” value (400 mg QPM, Region Asia) was −5.66 and the “Change from Baseline in ISS7 at Week 12, LS Mean” value [7] was −4.74. The “Change from Baseline in ISS7 at Week 12, LS Mean Diff vs. placebo” value [7] was 7.93, the “Change from Baseline in ISS7 at Week 12, Mean” value [7] was −5.54 and the “Change from Baseline in ISS7 at Week 12, LS Mean” value [8] was −5.19. The “Change from Baseline in ISS7 at Week 12, LS Mean Diff vs. placebo” value [8] was 1.40, the “Change from Baseline in ISS7 at Week 12, Mean” value [8] was −6.51 and the “Change from Baseline in ISS7 at Week 12, LS Mean” value [9] was −3.02. For the same compound, the “Change from Baseline in ISS7 at Week 12, LS Mean Diff vs. placebo” value [9] was 1.53, the “Change from Baseline in ISS7 at Week 12, Mean” value [9] was −4.61 and the “ISS7 at Week 12, Median” value [10] was 11.60. For the same compound, the “ISS7 change from baseline at Week 12, Mean” value [10] was −5.69, the “ISS7 change … Median” value [10] was −5.33 and the “ISS7 at Week 12, Median” value [11] was 11.60. The “ISS7 change from baseline at Week 12, Mean” value [11] was −5.69, the “ISS7 change … Median” value [11] was −5.33 and the “ISS7 change from baseline at Week 12, LS Mean” value [11] was −5.29 points. The “ISS7 change … LS Mean Diff vs. placebo” value [11] was 0.42, the “ISS7 change from baseline at Week 12, LS Mean” value [10] was −5.19 points and the “ISS7 change … LS Mean Diff vs. placebo” value [10] was 0.58. For the same compound, the “patients with improvement in the weekly ISS7” value (400 mg TID arm) was “all patients except one showed improvement”, the “Change from Baseline in ISS7 at Week 12, LS Mean” value [12] was −9.04 and the “Change from Baseline in ISS7 at Week 12, LS Mean Diff vs. placebo” value [12] was −4.56. For the same compound, the “Change from Baseline in ISS7 at Week 12, LS Mean” value [13] was −8.63, the “Change from Baseline in ISS7 at Week 12, LS Mean Diff vs. placebo” value [13] was −2.97 and the “Change from Baseline in ISS7 at Week 12, Mean” value [13] was −9.73. The “Change from Baseline in ISS7 at Week 12, LS Mean” value [14] was −9.26, the “Change from Baseline in ISS7 at Week 12, LS Mean Diff vs. placebo” value [14] was −2.66 and the “Change from Baseline in ISS7 at Week 12, Mean” value [14] was −10.16. The “Change from Baseline in ISS7 at Week 12, Mean” value (400 mg TID, Age group (years) ≥65) was −13.50, the “Change from Baseline in ISS7 at Week 12, LS Mean” value [15] was −12.96 and the “Change from Baseline in ISS7 at Week 12, LS Mean Diff vs. placebo” value [15] was −7.58. For the same compound, the “Change from Baseline in ISS7 at Week 12, Mean” value [15] was −12.42, the “Change from Baseline in ISS7 at Week 12, LS Mean” value [16] was −8.82 and the “Change from Baseline in ISS7 at Week 12, Mean” value [16] was −9.91. The “Change from Baseline in ISS7 at Week 12, LS Mean Diff vs. placebo” value (400 mg TID, Baseline BMI (kg/m^2) ≥30) was −3.19, the “Change from Baseline in ISS7 at Week 12, LS Mean” value [17] was −10.28 and the “Change from Baseline in ISS7 at Week 12, LS Mean Diff vs. placebo” value [17] was −3.50. The “Change from Baseline in ISS7 at Week 12, LS Mean” value [18] was −10.22, the “Change from Baseline in ISS7 at Week 12, LS Mean Diff vs. placebo” value [18] was −3.71 and the “Change from Baseline in ISS7 at Week 12, Mean” value [18] was −10.99. For the same compound, the “Change from Baseline in ISS7 at Week 12, LS Mean” value [19] was −9.46, the “Change from Baseline in ISS7 at Week 12, LS Mean Diff vs. placebo” value [19] was −3.99 and the “Change from Baseline in ISS7 at Week 12, Mean” value [19] was −10.61. For the same compound, the “Change from Baseline in ISS7 at Week 12, LS Mean” value [20] was −8.30, the “Change from Baseline in ISS7 at Week 12, LS Mean Diff vs. placebo” value [20] was −4.31 and the “Change from Baseline in ISS7 at Week 12, LS Mean” value [21] was −8.24. For the same compound, the “Change from Baseline in ISS7 at Week 12, LS Mean Diff vs. placebo” value [21] was −4.16, the “Change from Baseline in ISS7 at Week 12, Mean” value [21] was −9.55 and the “Change from Baseline in ISS7 at Week 12, LS Mean” value [22] was −8.12. The “Change from Baseline in ISS7 at Week 12, LS Mean Diff vs. placebo” value [22] was −3.27, the “Change from Baseline in ISS7 at Week 12, Mean” value [22] was −8.68 and the “Change from Baseline in ISS7 at Week 12, LS Mean” value [23] was −8.05. For the same compound, the “Change from Baseline in ISS7 at Week 12, LS Mean Diff vs. placebo” value [23] was −1.22, the “Change from Baseline in ISS7 at Week 12, Mean” value [23] was −8.88 and the “Change from Baseline in ISS7 at Week 12, LS Mean” value [24] was −11.00. The “Change from Baseline in ISS7 at Week 12, LS Mean Diff vs. placebo” value [24] was −7.52.
